Assay results taken from ChEMBL document CHEMBL1201862, “PubChem BioAssay data set” (2004).
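Cultured in 96-well plates, cells were exposed to test compound for 48 hours across five concentrations. GI50 = concentration required for 50% inhibition of growth.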 Calls of active or inactive are those of the source. No stated cut-off is given here; in the data, active = GI50 up to about 1.1 µM and inactive = higher.

Legend:
Experiment in all cases: NCI-60 cell line screen, 48 h
RPMI-8226 = tested on: RPMI-8226
KM-20L2 = tested on: KM-20L2
SF-539 = tested on: SF-539
CCRF-CEM = tested on: CCRF-CEM
LXFL 529 = tested on: LXFL 529
M14 = tested on: M14
ACHN = tested on: ACHN
HCT-116 = tested on: HCT-116
A498 = tested on: A498
HOP-92 = tested on: HOP-92
TK-10 = tested on: TK-10
NCI-H522 = tested on: NCI-H522
A549 = tested on: A549
OVCAR-8 = tested on: OVCAR-8
U-251 = tested on: U-251
SW-620 = tested on: SW-620
NCI-H23 = tested on: NCI-H23
COLO 205 = tested on: COLO 205
SK-MEL-5 = tested on: SK-MEL-5
SF-295 = tested on: SF-295
K562 = tested on: K562
HOP-62 = tested on: HOP-62
SN12C = tested on: SN12C
NCI-H460 = tested on: NCI-H460
HL-60 = tested on: HL-60
RXF 393 = tested on: RXF 393
RXF 631 = tested on: RXF 631
LOX IMVI = tested on: LOX IMVI
UO-31 = tested on: UO-31
MOLT-4 = tested on: MOLT-4
SF-268 = tested on: SF-268
DMS-114 = tested on: DMS-114
XF498 = tested on: XF498
DLD-1 = tested on: DLD-1
HCT-15 = tested on: HCT-15
EKVX = tested on: EKVX
DMS-273 = tested on: DMS-273
HOP-18 = tested on: HOP-18
SK-OV-3 = tested on: SK-OV-3
SK-MEL-28 = tested on: SK-MEL-28
SR = tested on: SR
CAKI-1 = tested on: CAKI-1
Malme-3M = tested on: Malme-3M
KM12 = tested on: KM12
M19-MEL = tested on: M19-MEL
IGROV-1 = tested on: IGROV-1
OVCAR-5 = tested on: OVCAR-5
786-0 = tested on: 786-0
NCI-H226 = tested on: NCI-H226
SNB-75 = tested on: SNB-75
HT-29 = tested on: HT-29
SNB-19 = tested on: SNB-19
UACC-62 = tested on: UACC-62
OVCAR-3 = tested on: OVCAR-3
OVCAR-4 = tested on: OVCAR-4
UACC-257 = tested on: UACC-257
SNB-78 = tested on: SNB-78
HCC 2998 = tested on: HCC 2998
SK-MEL-2 = tested on: SK-MEL-2

Nc1ccn(C2OC(C(O)CO)C(O)C2O)c(=O)n1 (stereo not given)
GI50 (RPMI-8226): > 100 µM (inactive) | GI50 (KM-20L2): > 100 µM (inactive) | GI50 (SF-539): > 100 µM (inactive) | GI50 (CCRF-CEM): > 100 µM (inactive) | GI50 (LXFL 529): > 100 µM (inactive) | GI50 (M14): > 100 µM (inactive) | GI50 (ACHN): > 100 µM (inactive) | GI50 (HCT-116): > 100 µM (inactive) | GI50 (A498): > 100 µM (inactive) | GI50 (HOP-92): > 100 µM (inactive) | GI50 (TK-10): > 100 µM (inactive) | GI50 (NCI-H522): > 100 µM (inactive) | GI50 (A549): > 100 µM (inactive) | GI50 (OVCAR-8): > 100 µM (inactive) | GI50 (U-251): > 100 µM (inactive) | GI50 (SW-620): > 100 µM (inactive) | GI50 (NCI-H23): > 100 µM (inactive) | GI50 (COLO 205): > 100 µM (inactive) | GI50 (SK-MEL-5): > 100 µM (inactive) | GI50 (SF-295): > 100 µM (inactive) | GI50 (K562): > 100 µM (inactive) | GI50 (HOP-62): > 100 µM (inactive) | GI50 (SN12C): > 100 µM (inactive) | GI50 (NCI-H460): > 100 µM (inactive) | GI50 (HL-60): > 100 µM (inactive) | GI50 (RXF 393): > 100 µM (inactive) | GI50 (RXF 631): > 100 µM (inactive) | GI50 (LOX IMVI): > 100 µM (inactive) | GI50 (UO-31): 69.2 µM (inactive) | GI50 (MOLT-4): > 100 µM (inactive) | GI50 (SF-268): > 100 µM (inactive) | GI50 (DMS-114): > 100 µM (inactive) | GI50 (XF498): > 100 µM (inactive) | GI50 (DLD-1): > 100 µM (inactive) | GI50 (HCT-15): > 100 µM | GI50 (EKVX): > 100 µM (inactive) | GI50 (DMS-273): > 100 µM (inactive) | GI50 (HOP-18): > 100 µM (inactive) | GI50 (SK-OV-3): > 100 µM (inactive) | GI50 (SK-MEL-28): > 100 µM (inactive)

Cc1cccc(-c2nnc(S)[nH]2)c1
GI50 (SR): > 100 µM (inactive) | GI50 (RPMI-8226): > 100 µM (inactive) | GI50 (KM-20L2): > 100 µM (inactive) | GI50 (SF-539): > 100 µM (inactive) | GI50 (CCRF-CEM): > 100 µM (inactive) | GI50 (CAKI-1): > 100 µM (inactive) | GI50 (LXFL 529): > 100 µM (inactive) | GI50 (M14): > 100 µM (inactive) | GI50 (ACHN): > 100 µM (inactive) | GI50 (HCT-116): > 100 µM (inactive) | GI50 (Malme-3M): > 100 µM (inactive) | GI50 (A498): > 100 µM (inactive) | GI50 (HOP-92): > 100 µM (inactive) | GI50 (TK-10): > 100 µM (inactive) | GI50 (NCI-H522): > 100 µM (inactive) | GI50 (A549): > 100 µM (inactive) | GI50 (KM12): > 100 µM (inactive) | GI50 (M19-MEL): > 100 µM (inactive) | GI50 (IGROV-1): > 100 µM (inactive) | GI50 (OVCAR-8): > 100 µM (inactive) | GI50 (U-251): > 100 µM (inactive) | GI50 (SW-620): > 100 µM (inactive) | GI50 (NCI-H23): > 100 µM (inactive) | GI50 (COLO 205): > 100 µM (inactive) | GI50 (SK-MEL-5): > 100 µM (inactive) | GI50 (SF-295): > 100 µM (inactive) | GI50 (OVCAR-5): > 100 µM (inactive) | GI50 (786-0): > 100 µM (inactive) | GI50 (K562): > 100 µM (inactive) | GI50 (HOP-62): > 100 µM (inactive) | GI50 (SN12C): > 100 µM (inactive) | GI50 (NCI-H460): > 100 µM (inactive) | GI50 (HL-60): > 100 µM (inactive) | GI50 (NCI-H226): > 100 µM (inactive) | GI50 (RXF 631): > 100 µM (inactive) | GI50 (UO-31): > 100 µM (inactive) | GI50 (MOLT-4): 89.5 µM (inactive) | GI50 (SNB-75): > 100 µM (inactive) | GI50 (HT-29): > 100 µM (inactive) | GI50 (SNB-19): > 100 µM (inactive) | GI50 (SF-268): > 100 µM (inactive) | GI50 (UACC-62): > 100 µM (inactive) | GI50 (OVCAR-3): > 100 µM (inactive) | GI50 (XF498): > 100 µM (inactive) | GI50 (DLD-1): > 100 µM (inactive) | GI50 (HCT-15): > 100 µM | GI50 (OVCAR-4): > 100 µM (inactive) | GI50 (EKVX): > 100 µM (inactive) | GI50 (DMS-273): > 100 µM (inactive) | GI50 (HOP-18): > 100 µM (inactive) | GI50 (SK-OV-3): > 100 µM (inactive) | GI50 (UACC-257): > 100 µM (inactive) | GI50 (SK-MEL-28): > 100 µM (inactive) | GI50 (SNB-78): > 100 µM (inactive) | GI50 (HCC 2998): > 100 µM (inactive) | GI50 (SK-MEL-2): > 100 µM (inactive)

CN1CCCC2[C@@H]3CCC4=C(O)C(=O)CC[C@]4(C)C3CC[C@@]21C (stereo not given in full)
GI50 (RPMI-8226): > 100 µM (inactive) | GI50 (KM-20L2): > 100 µM (inactive) | GI50 (SF-539): > 100 µM (inactive) | GI50 (CCRF-CEM): > 100 µM (inactive) | GI50 (CAKI-1): > 100 µM (inactive) | GI50 (LXFL 529): > 100 µM (inactive) | GI50 (M14): > 100 µM (inactive) | GI50 (ACHN): > 100 µM (inactive) | GI50 (HCT-116): > 100 µM (inactive) | GI50 (Malme-3M): > 100 µM (inactive) | GI50 (A498): > 100 µM (inactive) | GI50 (HOP-92): > 100 µM (inactive) | GI50 (TK-10): > 100 µM (inactive) | GI50 (NCI-H522): > 100 µM (inactive) | GI50 (A549): > 100 µM (inactive) | GI50 (KM12): > 100 µM (inactive) | GI50 (IGROV-1): > 100 µM (inactive) | GI50 (OVCAR-8): > 100 µM (inactive) | GI50 (U-251): > 100 µM (inactive) | GI50 (SW-620): > 100 µM (inactive) | GI50 (NCI-H23): > 100 µM (inactive) | GI50 (COLO 205): > 100 µM (inactive) | GI50 (SK-MEL-5): > 100 µM (inactive) | GI50 (SF-295): > 100 µM (inactive) | GI50 (OVCAR-5): > 100 µM (inactive) | GI50 (786-0): > 100 µM (inactive) | GI50 (K562): > 100 µM (inactive) | GI50 (HOP-62): > 100 µM (inactive) | GI50 (SN12C): > 100 µM (inactive) | GI50 (NCI-H460): > 100 µM (inactive) | GI50 (HL-60): > 100 µM (inactive) | GI50 (NCI-H226): > 100 µM (inactive) | GI50 (RXF 393): > 100 µM (inactive) | GI50 (RXF 631): > 100 µM (inactive) | GI50 (LOX IMVI): > 100 µM (inactive) | GI50 (UO-31): > 100 µM (inactive) | GI50 (MOLT-4): > 100 µM (inactive) | GI50 (SNB-75): > 100 µM (inactive) | GI50 (HT-29): > 100 µM (inactive) | GI50 (SNB-19): > 100 µM (inactive) | GI50 (SF-268): > 100 µM (inactive) | GI50 (UACC-62): > 100 µM (inactive) | GI50 (OVCAR-3): > 100 µM (inactive) | GI50 (DMS-114): > 100 µM (inactive) | GI50 (XF498): > 100 µM (inactive) | GI50 (HCT-15): > 100 µM | GI50 (OVCAR-4): > 100 µM (inactive) | GI50 (EKVX): > 100 µM (inactive) | GI50 (DMS-273): > 100 µM (inactive) | GI50 (HOP-18): > 100 µM (inactive) | GI50 (SK-OV-3): > 100 µM (inactive) | GI50 (UACC-257): > 100 µM (inactive) | GI50 (SK-MEL-28): > 100 µM (inactive) | GI50 (SK-MEL-2): 1.4 µM (inactive)
